Counter-ions that a name gives are not always drawn.
Target: human PDE9A (Homo sapiens (Human), UniProt O76083)
Conditions: concentrations of up to 100 μM; cited from earlier work

Chain of human PDE9A (O76083 whole entry): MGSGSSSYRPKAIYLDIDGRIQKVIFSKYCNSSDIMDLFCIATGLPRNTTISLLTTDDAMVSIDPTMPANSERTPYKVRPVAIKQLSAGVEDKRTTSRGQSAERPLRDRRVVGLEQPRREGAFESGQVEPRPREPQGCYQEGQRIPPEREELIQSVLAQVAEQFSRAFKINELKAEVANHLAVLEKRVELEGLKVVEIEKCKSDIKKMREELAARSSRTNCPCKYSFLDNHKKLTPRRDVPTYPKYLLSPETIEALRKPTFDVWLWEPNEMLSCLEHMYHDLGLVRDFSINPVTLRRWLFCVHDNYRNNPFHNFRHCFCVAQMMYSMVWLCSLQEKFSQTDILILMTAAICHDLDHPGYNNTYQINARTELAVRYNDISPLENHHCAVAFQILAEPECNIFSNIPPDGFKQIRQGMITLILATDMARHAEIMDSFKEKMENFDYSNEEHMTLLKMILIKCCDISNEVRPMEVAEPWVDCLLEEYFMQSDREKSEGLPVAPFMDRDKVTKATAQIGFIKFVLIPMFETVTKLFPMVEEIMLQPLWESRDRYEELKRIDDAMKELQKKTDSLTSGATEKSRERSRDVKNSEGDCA

SMILES	inhibition on the isolated enzyme
CC(C)Cn1c(=O)n(C)c(=O)c2[nH]cnc21 [IBMX]	no inhibition
CC(=O)Nc1ccc(-c2c[nH]c(=O)cn2)cc1 [SKF94120]	no inhibition
OCCN(CCO)c1nc(N2CCCCC2)c2nc(N(CCO)CCO)nc(N3CCCCC3)c2n1 [dipyridamole]	no inhibition
COc1ccc(C2CNC(=O)C2)cc1OC1CCCC1 (stereo not shown) [rolipram]	no inhibition
CCOC(=O)C1=C[C@]2(CC)CCCN3CCc4c(n1c1ccccc41)[C@@H]32 [vinpocetine]	no inhibition

System: not given
Conditions: not given

SMILES	melting point [°C]
Cc1ccccc1-n1ncc2c(=O)[nH]c(CC3C=CCC3)nc21 (stereo not shown) (as salt: sodium) [Example 9, 6-(2-Cyclopenten-1-ylmethyl)-1-(2-methylphenyl)-1,5-dihydro-4H-pyrazolo[3,4-d]pyrimidin-4-one]	179
O=c1[nH]c(CC2C=CCC2)nc2c1cnn2-c1ccccc1Cl (stereo not shown) (as salt: sodium) [Example 16, 6-(2-Cyclopenten-1-ylmethyl)-1-(2-chlorophenyl)-1,5-dihydro-4H-pyrazolo[3,4-d]pyrimidin-4-one]	150
O=c1[nH]c(CC2C=CCC2)nc2c1cnn2-c1ccccn1 (stereo not shown) (as salt: sodium) [Example 17, 6-(2-Cyclopenten-1-ylmethyl)-1-(2-pyridinyl)-1,5-dihydro-4H-pyrazolo[3,4-d]pyrimidin-4-one]	239
CC(C)Cc1nc2c(cnn2-c2ccccc2Cl)c(=O)[nH]1 (as salt: sodium) [Example 40, 1-(2-Chlorophenyl)-6-(2-methylpropyl)-1,5-dihydro-4H-pyrazolo[3,4-d]pyrimidin-4-one]	204
CCC(CC)Cc1nc2c(cnn2-c2cnccc2C)c(=O)[nH]1 (as salt: sodium) [Example 41, 6-(2-Ethylbutyl)-1-(4-methylpyridin-3-yl)-1,5-dihydro-4H-pyrazolo[3,4-d]pyrimidin-4-one]	143
CCC(C)Cc1nc2c(cnn2-c2ccccc2C)c(=O)[nH]1 (racemic) (as salt: sodium) [Example 35, 6-(2-Methylbutyl)-1-(2-methylphenyl)-1,5-dihydro-4H-pyrazolo[3,4-d]pyrimidin-4-one]	132

Other lines, results leading:

melting point [°C]	SMILES
181	Cc1ccccc1-n1ncc2c(=O)[nH]c(CC3CCCC3)nc21 (as salt: sodium)
206	Cc1ccncc1-n1ncc2c(=O)[nH]c(CC3CCCC3)nc21 (as salt: sodium)
146	CCc1ccccc1-n1ncc2c(=O)[nH]c(CC3C=CCC3)nc21 (stereo not shown) (as salt: sodium) [Example 8, 6-(2-Cyclopenten-1-ylmethyl)-1-(2-ethylphenyl)-1,5-dihydro-4H-pyrazolo[3,4-d]pyrimidin-4-one]
169	Cc1ccccc1-n1ncc2c(=O)[nH]c(CC3CCCCC3)nc21 (as salt: sodium) [Example 10, 6-Cyclohexylmethyl-1-(2-methylphenyl)-1,5-dihydro-4H-pyrazolo[3,4-d]pyrimidin-4-one]
153	O=c1[nH]c(CC2C=CCC2)nc2c1cnn2-c1ccccc1C(F)(F)F (stereo not shown) (as salt: sodium) [Example 14, 6-(2-Cyclopenten-1-ylmethyl)-1-[2-(trifluoromethyl)phenyl]-1,5-dihydro-4H-pyrazolo[3,4-d]pyrimidin-4-one]
163	O=c1[nH]c(CC2C=CCC2)nc2c1cnn2-c1ccccc1F (stereo not shown) (as salt: sodium) [Example 15, 6-(2-Cyclopenten-1-ylmethyl)-1-(2-fluorophenyl)-1,5-dihydro-4H-pyrazolo[3,4-d]pyrimidin-4-one]
182	COc1ccccc1-n1ncc2c(=O)[nH]c(CC3C=CCC3)nc21 (stereo not shown) (as salt: sodium) [Example 18, 6-(2-Cyclopenten-1-ylmethyl)-1-(2-methoxyphenyl)-1,5-dihydro-4H-pyrazolo[3,4-d]pyrimidin-4-one]
206	Cc1ccncc1-n1ncc2c(=O)[nH]c(CC3CCCCC3)nc21 (as salt: sodium) [Example 43, 6-Cyclohexylmethyl-1-(4-methylpyridin-3-yl)-1,5-dihydro-4H-pyrazolo[3,4-d]pyrimidin-4-one]
160	Cc1ccccc1-n1ncc2c(=O)[nH]c(CC(C)C(F)(F)F)nc21 (racemic) (as salt: sodium) [Example 36, 1-(2-Methylphenyl)-6-(3,3,3-trifluoro-2-methylpropyl)-1,5-dihydro-4H-pyrazolo[3,4-d]pyrimidin-4-one]
149	CCC(C)Cc1nc2c(cnn2-c2cnccc2C)c(=O)[nH]1 (racemic) (as salt: sodium) [Example 39, 6-(2-Methylbutyl)-1-(4-methylpyridin-3-yl)-1,5-dihydro-4H-pyrazolo[3,4-d]pyrimidin-4-one]

Target: Murine PDE9A (Mus musculus (Mouse), UniProt O70628)
Sequence (O70628 whole entry): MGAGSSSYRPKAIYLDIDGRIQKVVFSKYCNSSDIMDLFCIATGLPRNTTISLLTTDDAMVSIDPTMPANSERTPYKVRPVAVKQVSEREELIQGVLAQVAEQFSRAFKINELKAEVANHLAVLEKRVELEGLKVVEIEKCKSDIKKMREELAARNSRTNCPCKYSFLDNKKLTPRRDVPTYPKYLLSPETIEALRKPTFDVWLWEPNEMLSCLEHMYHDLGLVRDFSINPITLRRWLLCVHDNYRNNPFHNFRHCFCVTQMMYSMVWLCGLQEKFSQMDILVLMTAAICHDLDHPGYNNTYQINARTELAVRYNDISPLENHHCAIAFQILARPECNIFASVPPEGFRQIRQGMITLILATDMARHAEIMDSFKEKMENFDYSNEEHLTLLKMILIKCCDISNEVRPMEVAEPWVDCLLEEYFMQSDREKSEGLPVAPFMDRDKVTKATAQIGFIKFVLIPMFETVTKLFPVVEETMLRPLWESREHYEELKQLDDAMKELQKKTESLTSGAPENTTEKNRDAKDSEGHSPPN
Conditions: concentrations below 200 μM; cited from earlier work

SMILES	inhibition of murine PDE9A
CC(C)Cn1c(=O)n(C)c(=O)c2[nH]cnc21 [IBMX]	not inhibited
